Ki data for 19 compounds are collected here from patent publication US8461328B2, “Tricyclic heterocyclic compounds, compositions and methods of use thereof” (Genentech, Inc., priority 2010, dated 2013).

What all share (type): biochemical
The target in one assay is T1, JAK1 (Homo sapiens, UniProt P23458).
T1 construct: made in house; host or cells: SF9 insect cells (baculovirus)
Nature of the assay: JAK1 inhibition (Table 4). As to conditions: read-out: JAK1 Ki.

A further assay has as its target T2, JAK2 (Homo sapiens, UniProt O60674).
T2 construct: made in house; host or cells: SF9 insect cells (baculovirus)
Nature of the assay: JAK2 inhibition (Table 4). To be noted: read-out: JAK2 Ki.

In another assay the target is T3, JAK3 (Homo sapiens, UniProt P52333).
T3 construct: made in house; host or cells: SF9 insect cells (baculovirus)
T3 sequence (P52333 783-1124): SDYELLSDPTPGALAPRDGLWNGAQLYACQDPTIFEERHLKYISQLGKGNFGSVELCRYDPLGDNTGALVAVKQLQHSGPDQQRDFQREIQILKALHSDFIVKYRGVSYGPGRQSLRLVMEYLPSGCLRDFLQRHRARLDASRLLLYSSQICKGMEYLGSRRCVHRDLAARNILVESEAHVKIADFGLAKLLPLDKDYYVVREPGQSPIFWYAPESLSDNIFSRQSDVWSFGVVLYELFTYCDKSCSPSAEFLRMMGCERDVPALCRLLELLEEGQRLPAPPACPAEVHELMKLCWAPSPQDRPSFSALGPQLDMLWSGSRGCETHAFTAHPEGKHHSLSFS
The experiment in a line: JAK3 inhibition (Table 4). As to conditions: read-out: JAK3 Ki.

For a further assay, the target named is T4, TYK2 (Homo sapiens, UniProt P29597).
T4 construct: made in house; host or cells: SF9 insect cells (baculovirus)
T4 sequence (P29597 873-1187): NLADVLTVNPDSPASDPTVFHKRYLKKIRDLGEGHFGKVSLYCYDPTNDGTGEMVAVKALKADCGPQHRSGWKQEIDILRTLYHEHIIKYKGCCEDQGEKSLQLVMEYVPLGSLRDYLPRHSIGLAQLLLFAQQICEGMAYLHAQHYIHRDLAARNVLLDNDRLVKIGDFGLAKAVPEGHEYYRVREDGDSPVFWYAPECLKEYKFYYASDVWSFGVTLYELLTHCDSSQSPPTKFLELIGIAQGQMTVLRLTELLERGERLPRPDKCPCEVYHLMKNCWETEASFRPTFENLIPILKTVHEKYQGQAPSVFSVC
Nature of the assay: TYK2 inhibition (Table 4).

T2 sequence (O60674 812-1132): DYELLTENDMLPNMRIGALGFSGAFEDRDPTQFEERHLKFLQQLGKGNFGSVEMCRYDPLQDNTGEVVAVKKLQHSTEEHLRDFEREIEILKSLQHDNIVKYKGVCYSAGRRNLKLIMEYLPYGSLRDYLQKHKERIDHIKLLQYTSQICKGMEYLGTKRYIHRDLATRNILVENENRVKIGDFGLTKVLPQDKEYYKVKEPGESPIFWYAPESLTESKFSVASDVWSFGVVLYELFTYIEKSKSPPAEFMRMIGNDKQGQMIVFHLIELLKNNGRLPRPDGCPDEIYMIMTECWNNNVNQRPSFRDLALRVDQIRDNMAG
T1 sequence (P23458 852-1154): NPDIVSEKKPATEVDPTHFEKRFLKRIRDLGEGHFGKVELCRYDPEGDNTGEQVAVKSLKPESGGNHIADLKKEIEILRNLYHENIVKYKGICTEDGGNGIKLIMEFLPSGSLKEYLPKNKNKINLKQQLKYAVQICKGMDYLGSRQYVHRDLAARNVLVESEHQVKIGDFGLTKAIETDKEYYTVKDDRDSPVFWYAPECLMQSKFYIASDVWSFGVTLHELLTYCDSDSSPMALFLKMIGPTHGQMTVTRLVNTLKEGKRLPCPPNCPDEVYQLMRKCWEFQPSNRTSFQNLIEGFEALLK

Regarding `O=C([C@@H]1CC(F)(F)CN1)N1CCC(n2cnc3cnc4[nH]ccc4c32)CC1` [Example 250, ((S)-4,4-Difluoro-pyrrolidin-2-yl)-[4-(6H-1,3,5,6-tetraaza-as-indacen-1-yl)-piperidin-1-yl]-methanone], the inhibitory constant (Ki) at JAK1 is 29 nM; on JAK2, 64.7 nM; at JAK3, 336 nM; at TYK2, 300 nM.
Take `FC(F)(F)c1nc2cnc3[nH]ccc3c2n1C1CCNCC1` [Example 254, 1-Piperidin-4-yl-2-trifluoromethyl-1,6-dihydro-1,3,5,6-tetraaza-as-indacene]: the Ki on JAK1 was determined as 69.5 nM; at JAK2, 568 nM; at JAK3, 234 nM; on TYK2 it was 1500 nM.
With `c1cc2c(ncc3ncn(CC4CCNCC4)c32)[nH]1` [Example 255, 1-Piperidin-4-ylmethyl-1,6-dihydro-1,3,5,6-tetraaza-as-indacene], the Ki stood at 278 nM at JAK1, 490 nM on JAK2, 479 nM at JAK3 and 1120 nM on TYK2.
As to `N#CCCN1CCC(n2c(C(F)(F)F)nc3cnc4[nH]ccc4c32)CC1` [Example 256, 3-[4-(-2-Trifluoromethyl-6H-1,3,5,6-tetraaza-as-indacen-1-yl)-piperidin-1-yl]-propionitrile], the Ki on JAK1 was determined as 7.86 nM; at JAK2, 9.21 nM; on JAK3, 9.96 nM; at TYK2, 68.8 nM.
On to `O=C(Cc1nc2cnc3[nH]ccc3c2n1C1CCN(Cc2ccccc2)CC1)N1CC(F)C1` [Example 258, 2-[1-(1-Benzyl-piperidin-4-yl)-1,6-dihydro-1,3,5,6-tetraaza-as-indacen-2-yl)-1-(3-fluoro-azetidin-1-yl)-ethanone], for which the Ki at JAK1 came to 28.8 nM; on JAK2, 125 nM; at JAK3 it was 14.4 nM; on TYK2 it was 1810 nM.
For `O=C(Cc1nc2cnc3[nH]ccc3c2n1C1CCN(Cc2ccccc2)CC1)N1CC(F)(F)C1` [Example 259, 2-[1-(1-Benzyl-piperidin-4-yl)-1,6-dihydro-1,3,5,6-tetraaza-as-indacen-2-yl)-1-(3,3-difluoro-azetidin-1-yl)-ethanone], the Ki came to 27.8 nM at JAK1, 95.3 nM at JAK2, 11.7 nM at JAK3 and 1850 nM at TYK2.
For the compound `NC(=O)Cc1nc2cnc3[nH]ccc3c2n1C1CCNCC1` [Example 260, 2-(1-Piperidin-4-yl-1,6-dihydro-1,3,5,6-tetraaza-as-indacen-2-yl)-acetamide], the Ki at JAK1 was found to be 41.6 nM; on JAK2, 847 nM; on JAK3, 302 nM; at TYK2, 795 nM.
For `CC(C)NC(=O)Cc1nc2cnc3[nH]ccc3c2n1C1CCNCC1` [Example 261, N-Isopropyl-2-(1-piperidin-4-yl-1,6-dihydro-1,3,5,6-tetraaza-as-indacen-2-yl)-acetamide], the Ki came out at 39 nM at JAK1, 426 nM on JAK2, 108 nM on JAK3 and 678 nM on TYK2.
`O=C(Cc1nc2cnc3[nH]ccc3c2n1C1CCNCC1)N1CCS(=O)(=O)CC1` [Example 262, 1-(1,1-Dioxo-1lambda*6*-thiomorpholin-4-yl)-2-(1-piperidin-4-yl-1,6-dihydro-1,3,5,6-tetraaza-as-indacen-2-yl)-ethanone]: the Ki on JAK1 worked out at 21.2 nM; at JAK2, 663 nM; at JAK3, 96.5 nM; on TYK2, 165 nM.
For `CN(C(=O)Cc1nc2cnc3[nH]ccc3c2n1C1CCN(CCC#N)CC1)C1CCCC1` [Example 263, 2-{1-[1-(2-Cyano-ethyl)-piperidin-4-yl]-1,6-dihydro-1,3,5,6-tetraaza-as-indacen-2-yl}-N-cyclopentyl-N-methyl-acetamide], in that order: 55.3 nM, 152 nM, 19.1 nM and 401 nM.
With `N#CCCN1CCC(n2c(CC(N)=O)nc3cnc4[nH]ccc4c32)CC1` [Example 264, 2-{1-[1-(2-Cyano-ethy)-piperidin-4-yl]-1,6-dihydro-1,3,5,6-tetraaza-as-indacen-2-yl}-acetamide], the Ki was 5.32 nM at JAK1, 26.7 nM at JAK2, 14.1 nM on JAK3 and 63.4 nM on TYK2.
`O=C(Cc1nc2cnc3[nH]ccc3c2n1C1CCNCC1)NC1CCCC1` [Example 265, N-Cyclopentyl-2-(1-piperidin-4-yl-1,6-dihydro-1,3,5,6-tetraaza-as-indacen-2-yl)-acetamide]: the Ki was 29.7 nM at JAK1, 406 nM at JAK2, 66.1 nM on JAK3 and 570 nM at TYK2.
Taken in the same sequence, the figures for `CC(C)NC(=O)Cc1nc2cnc3[nH]ccc3c2n1C1CCN(CCC#N)CC1` [Example 266, 2-{1-[1-(2-Cyano-ethyl)-piperidin-4-yl]-1,6-dihydro-1,3,5,6-tetraaza-as-indacen-2-yl}-N-isopropyl-acetamide] were 5.26 nM, 17.2 nM, 7.87 nM and 120 nM.
For `N#CCCN1CCC(n2c(CC(=O)N3CCS(=O)(=O)CC3)nc3cnc4[nH]ccc4c32)CC1` [Example 267, 3-(4-{2-[2-(1,1-Dioxo-1lambda*6*-thiomorpholin-4-yl)-2-oxo-ethyl]-6H-1,3,5,6-tetraaza-as-indacen-1-yl}-piperidin-1-yl)-propionitrile], the Ki on JAK1 is 7.52 nM; at JAK2, 55.6 nM; on JAK3, 7.02 nM; at TYK2, 63.2 nM.
`N#CCCN1CCC(n2c(CC(=O)NC3CCCC3)nc3cnc4[nH]ccc4c32)CC1` [Example 268, 2-{1-[1-(2-Cyano-ethyl)-piperidin-4-yl]-1,6-dihydro-1,3,5,6-tetraaza-as-indacen-2-yl}-N-cyclopentyl-acetamide]: the Ki is 5.06 nM on JAK1, 16.1 nM on JAK2, 7.5 nM on JAK3 and 120 nM at TYK2.
Taken in the same sequence, the figures for `O=C(Cc1nc2cnc3[nH]ccc3c2n1C1CCNCC1)N1CC(F)(F)C1` [Example 269, 1-(3,3-Difluoro-azetidin-1-yl)-2-(1-piperidin-4-yl-1,6-dihydro-1,3,5,6-tetraaza-as-indacen-2-yl)-ethanone] were 84.4 nM, 1310 nM, 245 nM and 1700 nM.
Taken in the same sequence, the figures for `N#CCCN1CCC(n2c(CC(=O)N3CCCC3)nc3cnc4[nH]ccc4c32)CC1` [Example 270, 3-{4-[2-(2-Oxo-2-pyrrolidin-1-yl-ethyl)-6H-1,3,5,6-tetraaza-as-indacen-1-yl]-piperidin-1-yl}-propionitrile] were 36.1 nM, 121 nM, 15.1 nM and 352 nM.
For `Cc1nc2cnc3[nH]ccc3c2n1[C@@H]1C[C@H]2CC[C@@H](C1)N2Cc1ccccc1` [Example 271, 1-(8-Benzyl-8-aza-bicyclo[3.2.1]oct-3-yl)-2-methyl-1,6-dihydro-1,3,5,6-tetraaza-as-indacene], the Ki on JAK1 is 17.4 nM; on JAK2 it was 12.4 nM; at JAK3, 60.4 nM; on TYK2 it was 302 nM.
On to `Cc1nc2cnc3[nH]ccc3c2n1[C@@H]1CCCN(C(=O)CC#N)C1` [Example 272], for which the Ki at JAK1 was 0.5 nM; on JAK2, 1.35 nM; at JAK3 it was 3.14 nM; at TYK2, 4.71 nM.
